Source: patent publication US12297294B2, “Cortistatin analogues for the treatment of inflammatory and/or immune diseases” (BCN PEPTIDES, S.A., priority 2013, dated 2025)
Where a SMILES comes first, the peptide text is derived from it. Bridges are numbered along the chain shown (N, C = ends). [ ]: non-standard residue; d: D form. The star is where a group is joined. Phe(2,4,6-Me3) = Cc1cc(C)c(C[C@H](N)C(=O)O)c(C)c1; Phe(3,5-F2) = N[C@@H](Cc1cc(F)cc(F)c1)C(=O)O; Myristoyl = CCCCCCCCCCCCCC(=O)*; Octanoyl = CCCCCCCC(=O)*

Legend:
[1] = Serum stability in 90% human serum at 37° C., RP-HPLC; format: in vitro ADME; conditions: for main metabolite in serum: loss of C-terminal Lys
Method: The new compounds were incubated with 90% human serum at 37° C. Aliquots were extracted at different incubation times. Methanol was added to precipitate the proteins from the serum, it was centrifuged and the supernatant was subject to a chromatographic analysis using RP-HPLC (Gradient: 20-80% B in 30 min, B=0.07% TFA in acetonitrile). The disappearance of the initial product was analyzed using the area corresponding to the initial product and half-life time was calculated.

Raw 264 cells = assay: Inflammatory response in vitro: LPS-stimulated Raw 264 cells, cytokines (ELISA) and NO (Griess); format: cell-based; conditions: LPS 1 μg/ml, peptide 100 nM, 24 hours; for NO (nitric oxide) level in supernatant: Griess test, basal 0.44; for IL-6 level in supernatant: basal 0; for TNFalpha level in supernatant: basal 0.48
Method: Raw 264 cells were cultured in complete DMEM medium until a confluence of 80% was reached. The cells were incubated either in the absence or presence of lipopolysaccharide (LPS, 1 μg/ml, from E. coli serotype 055:B5). The cells incubated in the absence of lipopolysaccharide were used as a reference (basal). The new cortistatin analogues were added at 100 nM concentration at the start of the culture. After 24 hours, the supernatants were collected and cytokine and nitric oxide levels were measured. The cytokine level (TNFalpha and IL-6) was established using a ELISA test. The quantity of nitric oxide (NO) was established using the Griess test. Equal volumes of supernatants from the culture (90 μl) and Griess reagents were mixed and absorbance was measured at 550 nm. The nitrite amount was calculated in relation to a standard NaNO2 curve.
For comparison, the values of cortistatin-14 (CST-14), somatostatin-14 (SOM-14) and three somatostatin analogues described in WO 2010/128098 A1 were evaluated: […]

T cells (splenocytes) = assay: Immune response in vitro: anti-CD3 stimulated splenocyte T cells, proliferation and cytokines; format: cell-based, C57B1I/6 mice; conditions: anti-CD3 2 μg/ml, peptide 100 nM; for INFγ level in supernatant / IL-2 level in supernatant: 48 hours; for INFγ level in supernatant: activated 2.52, basal 0; for IL-2 level in supernatant: activated 3.22, basal 0.23; for proliferation ([3H]-thymidine incorporation): 72 hours, activated 9843, basal 640
Method: Splenocytes from 8 week old male C57B1I/6 mice were obtained after mechanical dissociation of cells, filtration through a nylon mesh and lysis of red blood cells. The splenocytes were incubated in complete DMEM medium until a density of 10^6 cells/ml. The non-adherent cells (formed in 80% by T cells) were used for measuring cytokines and for proliferation assays. The T cells were cultured in complete DMEM medium and stimulated with anti-CD3 antibodies (2 μg/ml) in the presence of different cortistatin analogues at a concentration of 100 nM. After 48 hours, the supernatants of the culture were isolated and the levels of cytokines (IFNγ and IL-2) were determined by using an ELISA test. In order to determine the effect of the different cortistatin analogues in proliferation, the cells were cultured for 72 hours and 0.5 μCi (0.0185 MBq)/well of [^3H]— thymidine was added for the last 8 hours of culture, the membranes were collected and the added [^3H]-Thymidine was measured using a scintillation counter.
For comparison, the values of cortistatin-14 (CST-14), somatostatin-14 (SOM-14) and three somatostatin analogues described in WO 2010/128098 A1 were determined: […]

[2] = target: T1, somatostatin receptor sstr2 (UniProt P30874 1-369, limits assumed); assay: radioligand competition vs 125I-Tyr11-somatostatin 14, CHO-K1 cells expressing sstr2, 0.1 nM to 10 uM
T1 construct: whole, on cells
T1 sequence (P30874 whole entry): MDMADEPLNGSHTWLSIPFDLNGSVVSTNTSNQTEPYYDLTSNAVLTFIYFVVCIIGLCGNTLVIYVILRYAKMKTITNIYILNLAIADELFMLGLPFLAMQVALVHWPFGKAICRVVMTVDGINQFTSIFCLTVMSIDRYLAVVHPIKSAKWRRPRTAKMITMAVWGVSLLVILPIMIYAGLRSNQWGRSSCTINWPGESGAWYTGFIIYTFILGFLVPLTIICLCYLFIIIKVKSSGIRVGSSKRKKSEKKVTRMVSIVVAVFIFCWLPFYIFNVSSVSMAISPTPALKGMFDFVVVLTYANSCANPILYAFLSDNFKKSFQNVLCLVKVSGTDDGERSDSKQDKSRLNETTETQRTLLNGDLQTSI
Method: (§1) CHO-K1 cells in which each of the 5 somatostatin receptors (sstr1-sstr5) were expressed independently were used. […] The radioactivity obtained in the absence of somatostatin-14 was considered as the total binding and that obtained in the presence of 1 μM of somatostatin-14 was considered as the non-specific bond. The specific binding was considered as the difference between the complete binding and the non-specific binding.

[3] = target: T2, somatostatin receptor sstr1 (UniProt P30872 1-391, limits assumed); assay: radioligand competition vs 125I-Tyr11-somatostatin 14, CHO-K1 cells expressing sstr1, 0.1 nM to 10 uM
T2 construct: whole, on cells
T2 sequence (P30872 whole entry): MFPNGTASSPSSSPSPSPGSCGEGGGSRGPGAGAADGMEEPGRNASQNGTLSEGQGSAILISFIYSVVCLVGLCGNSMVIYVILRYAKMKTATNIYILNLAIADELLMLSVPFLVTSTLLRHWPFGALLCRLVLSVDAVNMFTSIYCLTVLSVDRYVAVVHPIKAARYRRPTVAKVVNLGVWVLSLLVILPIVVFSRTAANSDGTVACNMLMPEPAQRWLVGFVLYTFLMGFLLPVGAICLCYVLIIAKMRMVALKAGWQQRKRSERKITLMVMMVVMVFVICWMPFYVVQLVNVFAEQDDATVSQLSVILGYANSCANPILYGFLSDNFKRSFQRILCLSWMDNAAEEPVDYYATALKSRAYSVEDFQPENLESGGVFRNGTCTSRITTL
Method: as §1

[4] = target: T3, somatostatin receptor sstr5 (UniProt P35346 1-364, limits assumed); assay: radioligand competition vs 125I-Tyr11-somatostatin 14, CHO-K1 cells expressing sstr5, 0.1 nM to 10 uM
T3 construct: whole, on cells
T3 sequence (P35346 whole entry): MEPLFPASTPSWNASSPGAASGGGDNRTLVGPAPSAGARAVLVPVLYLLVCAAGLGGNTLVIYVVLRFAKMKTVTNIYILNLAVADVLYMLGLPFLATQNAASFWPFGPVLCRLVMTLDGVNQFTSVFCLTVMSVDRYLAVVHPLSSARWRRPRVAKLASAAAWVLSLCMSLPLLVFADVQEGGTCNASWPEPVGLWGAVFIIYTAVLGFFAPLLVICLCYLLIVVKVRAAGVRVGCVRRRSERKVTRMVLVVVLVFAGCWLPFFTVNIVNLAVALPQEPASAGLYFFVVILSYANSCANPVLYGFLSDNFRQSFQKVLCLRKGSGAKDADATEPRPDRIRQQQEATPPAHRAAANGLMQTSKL
Method: as §1

[5] = target: T4, somatostatin receptor sstr3 (UniProt P32745 1-418, limits assumed); assay: radioligand competition vs 125I-Tyr11-somatostatin 14, CHO-K1 cells expressing sstr3, 0.1 nM to 10 uM
T4 construct: whole, on cells
T4 sequence (P32745 whole entry): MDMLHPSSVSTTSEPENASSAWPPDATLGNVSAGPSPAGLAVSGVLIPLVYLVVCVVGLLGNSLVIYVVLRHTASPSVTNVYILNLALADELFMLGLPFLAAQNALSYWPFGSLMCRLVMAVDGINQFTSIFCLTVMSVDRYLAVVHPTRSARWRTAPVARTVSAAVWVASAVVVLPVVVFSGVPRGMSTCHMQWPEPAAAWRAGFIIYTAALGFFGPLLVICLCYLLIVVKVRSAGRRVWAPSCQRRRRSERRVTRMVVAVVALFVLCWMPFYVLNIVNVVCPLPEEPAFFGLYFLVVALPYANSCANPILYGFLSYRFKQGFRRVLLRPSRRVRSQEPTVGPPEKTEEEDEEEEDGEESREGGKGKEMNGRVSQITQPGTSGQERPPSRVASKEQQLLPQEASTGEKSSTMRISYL
Method: as §1

C[C@H](N)C(=O)NCC(=O)N[C@H]1CSSC[C@@H](C(=O)O)NC(=O)[C@H](CO)NC(=O)[C@H]([C@@H](C)O)NC(=O)[C@H](Cc2ccccc2)NC(=O)[C@H]([C@@H](C)O)NC(=O)[C@H](CCCCN)NC(=O)[C@@H](Cc2c[nH]c3ccccc23)NC(=O)[C@H](Cc2cc(F)cc(F)c2)NC(=O)[C@H](Cc2ccccc2)NC(=O)[C@H](CC(N)=O)NC(=O)[C@H](CCCCN)NC1=O [Compound 6, H-L-Ala-Gly-c[L-Cys-L-Lys-L-Asn-L-Phe-L-Dfp-D-Trp-L-Lys-L-Thr-L-Phe-L-Thr-L-Ser-L-Cys]-OH]
half-life [1]: 3.8 h

C[C@@H](O)[C@@H]1NC(=O)[C@H](CCCCN)NC(=O)[C@H](Cc2c[nH]c3ccccc23)NC(=O)[C@H](Cc2ccccc2)NC(=O)[C@H](Cc2ccccc2)NC(=O)[C@H](CC(N)=O)NC(=O)[C@H](CCCCN)NC(=O)[C@@H](NC(=O)[C@@H]2CCCN2)CSSC[C@@H](C(=O)N[C@@H](CCCCN)C(=O)O)NC(=O)[C@H](CO)NC(=O)[C@H](CO)NC(=O)[C@H](Cc2ccccc2)NC1=O [CST-14] (H-PCKNFFWKTFSSCK-OH; disulfide 2-13)
main metabolite in serum [1]: compound 14 | NO (nitric oxide) level in supernatant (Raw 264 cells): 3.08 ng/mL | IL-6 level in supernatant (Raw 264 cells): 3.78 ng/mL | TNFalpha level in supernatant (Raw 264 cells): 3.17 ng/mL | INFγ level in supernatant (T cells (splenocytes)): 1.13 ng/mL | IL-2 level in supernatant (T cells (splenocytes)): 1.52 ng/mL | proliferation ([3H]-thymidine incorporation) (T cells (splenocytes)): 5500

H2N-AGc[CKNFFWKTFTSC]-OH (AGCKNFFWKTFTSC; disulfide cyclised; Somatostatin-14; DISULFID (3)..(14)) [SST-14, endogenous peptide somatostatin-14]
NO (nitric oxide) level in supernatant (Raw 264 cells): 4.32 ng/mL | IL-6 level in supernatant (Raw 264 cells): 4.2 ng/mL | TNFalpha level in supernatant (Raw 264 cells): 5.21 ng/mL | INFγ level in supernatant (T cells (splenocytes)): 2.31 ng/mL | IL-2 level in supernatant (T cells (splenocytes)): 3.14 ng/mL | proliferation ([3H]-thymidine incorporation) (T cells (splenocytes)): 9936

CCCCCCCC(=O)N1CCC[C@H]1C(=O)N[C@H]1CSSC[C@@H](C(=O)N[C@@H](CCCCN)C(=O)O)NC(=O)[C@H](CO)NC(=O)[C@H]([C@@H](C)O)NC(=O)[C@H](Cc2ccccc2)NC(=O)[C@H]([C@@H](C)O)NC(=O)[C@H](CCCCN)NC(=O)[C@@H](Cc2c[nH]c3ccccc23)NC(=O)[C@H](Cc2ccccc2)NC(=O)[C@H](Cc2c(C)cc(C)cc2C)NC(=O)[C@H](CC(N)=O)NC(=O)[C@H](CCCCN)NC1=O [Compound 4, Octanoyl-L-Pro-c[L-Cys-L-Lys-L-Asn-L-Msa-L-Phe-D-Trp-L-Lys-L-Thr-L-Phe-L-Thr-L-Ser-L-Cys-]-L-Lys-OH]
half-life [1]: 0.35 h | main metabolite in serum [1]: compound 5

CCCCCCCC(=O)N1CCC[C@H]1C(=O)N[C@H]1CSSC[C@@H](C(=O)O)NC(=O)[C@H](CO)NC(=O)[C@H]([C@@H](C)O)NC(=O)[C@H](Cc2ccccc2)NC(=O)[C@H]([C@@H](C)O)NC(=O)[C@H](CCCCN)NC(=O)[C@@H](Cc2c[nH]c3ccccc23)NC(=O)[C@H](Cc2ccccc2)NC(=O)[C@H](Cc2c(C)cc(C)cc2C)NC(=O)[C@H](CC(N)=O)NC(=O)[C@H](CCCCN)NC1=O [Compound 5, Octanoyl-L-Pro-c[L-Cys-L-Lys-L-Asn-L-Msa-L-Phe-D-Trp-L-Lys-L-Thr-L-Phe-L-Thr-L-Ser-L-Cys]-OH]
half-life [1]: 35 h

B1: Compound 5: Octanoyl-L-Pro-c[L-Cys-L-Lys-L-Asn-L-Msa-L-Phe-D-Trp-L-Lys-L-Thr-L-Phe-L-Thr-L-Ser-L-Cys]-OH (peptide)
peptide: Octanoyl-PCKN[Phe(2,4,6-Me3)]F[dW]KTFTSC-OH
modifications: disulfide 2-13
SMILES: CCCCCCCC(=O)N1CCC[C@H]1C(=O)N[C@H]1CSSC[C@@H](C(=O)O)NC(=O)[C@H](CO)NC(=O)[C@H]([C@@H](C)O)NC(=O)[C@H](Cc2ccccc2)NC(=O)[C@H]([C@@H](C)O)NC(=O)[C@H](CCCCN)NC(=O)[C@@H](Cc2c[nH]c3ccccc23)NC(=O)[C@H](Cc2ccccc2)NC(=O)[C@H](Cc2c(C)cc(C)cc2C)NC(=O)[C@H](CC(N)=O)NC(=O)[C@H](CCCCN)NC1=O
percentage of inhibition of specific binding [2]: > 50% | percentage of inhibition of specific binding [3]: > 50% | percentage of inhibition of specific binding [4]: > 50% | percentage of inhibition of specific binding [5]: > 50%

H-PCKN[Phe(3,5-F2)]FWKT[Phe(2,4,6-Me3)]SSCK-NH2 (disulfide 2-13)
percentage of inhibition of specific binding [2]: > 50% | percentage of inhibition of specific binding [3]: > 50% | percentage of inhibition of specific binding [4]: > 50% | percentage of inhibition of specific binding [5]: > 50%

B2: Compound 9: H-L-Asp-L-Arg-L-Met-L-Pro-c[L-Cys-L-Arg-L-Asn-L-Msa-L-Phe-L-Trp-L-Lys-L-Thr-L-Phe-L-Thr-L-Ser-L-Cys]-L-Lys-OH (peptide)
peptide: H-DRMPCRN[Phe(2,4,6-Me3)]FWKTFTSCK-OH
modifications: disulfide 5-16
SMILES: CSCC[C@H](NC(=O)[C@H](CCCNC(=N)N)NC(=O)[C@@H](N)CC(=O)O)C(=O)N1CCC[C@H]1C(=O)N[C@H]1CSSC[C@@H](C(=O)N[C@@H](CCCCN)C(=O)O)NC(=O)[C@H](CO)NC(=O)[C@H]([C@@H](C)O)NC(=O)[C@H](Cc2ccccc2)NC(=O)[C@H]([C@@H](C)O)NC(=O)[C@H](CCCCN)NC(=O)[C@H](Cc2c[nH]c3ccccc23)NC(=O)[C@H](Cc2ccccc2)NC(=O)[C@H](Cc2c(C)cc(C)cc2C)NC(=O)[C@H](CC(N)=O)NC(=O)[C@H](CCCNC(=N)N)NC1=O
percentage of inhibition of specific binding [2]: > 50% | percentage of inhibition of specific binding [3]: > 50% | percentage of inhibition of specific binding [4]: > 50% | percentage of inhibition of specific binding [5]: > 50%

B3: Compound 10: Myristoyl-L-Asp-L-Arg-L-Met-L-Pro-c[L-Cys-L-Arg-L-Asn-L-Msa-L-Phe-L-Trp-L-Lys-L-Thr-L-Phe-L-Thr-L-Ser-L-Cys]-L-Lys-OH (peptide)
peptide: Myristoyl-DRMPCRN[Phe(2,4,6-Me3)]FWKTFTSCK-OH
modifications: disulfide 5-16
SMILES: CCCCCCCCCCCCCC(=O)N[C@@H](CC(=O)O)C(=O)N[C@@H](CCCNC(=N)N)C(=O)N[C@@H](CCSC)C(=O)N1CCC[C@H]1C(=O)N[C@H]1CSSC[C@@H](C(=O)N[C@@H](CCCCN)C(=O)O)NC(=O)[C@H](CO)NC(=O)[C@H]([C@@H](C)O)NC(=O)[C@H](Cc2ccccc2)NC(=O)[C@H]([C@@H](C)O)NC(=O)[C@H](CCCCN)NC(=O)[C@H](Cc2c[nH]c3ccccc23)NC(=O)[C@H](Cc2ccccc2)NC(=O)[C@H](Cc2c(C)cc(C)cc2C)NC(=O)[C@H](CC(N)=O)NC(=O)[C@H](CCCNC(=N)N)NC1=O
percentage of inhibition of specific binding [2]: > 50% | percentage of inhibition of specific binding [3]: > 50% | percentage of inhibition of specific binding [4]: > 50% | percentage of inhibition of specific binding [5]: > 50%
